Test results: PMC5037758, “Affinity of ^nat/68Ga-Labelled Curcumin and Curcuminoid Complexes for β-Amyloid Plaques: Towards the Development of New Metal-Curcumin Based Radiotracers” (International Journal of Molecular Sciences, 2016)

Columns and labels:
amyloid β-protein (1–40) [1] = biological target: T1, amyloid β-protein (1–40) (Homo sapiens, UniProt P05067); test: direct radioligand binding to fibrils (not displaced by curcumin, lower specificity); fluorescence microscopy
T1 construct: gene APP; Aβ(1–40) synthetic amyloid fibrils

amyloid β-protein (1–40) [2] = biological target: T1, amyloid β-protein (1–40); test: direct radioligand binding to fibrils with displacement by curcumin; fluorescence microscopy

T1 sequence (P05067 672-711): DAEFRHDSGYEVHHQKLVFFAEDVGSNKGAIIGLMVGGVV

^68Ga(bDHC)2^+
% bound (amyloid β-protein (1–40) [1]): ~ 50 % bound

^68Ga(CUR)2^+
% bound (amyloid β-protein (1–40) [2]): > 90 % bound

^68Ga(DAC)2^+
% bound (amyloid β-protein (1–40) [2]): > 90 % bound
